Results as given in ChEMBL document CHEMBL5230118, “Therapeutic potential of uracil and its derivatives in countering pathogenic and physiological disorders” (Eur J Med Chem, 2020).
pIC50: −log10 of the molar value.

What was measured:
[1] = Bioavailability in human; format: ADME, organism-based; details: in vivo
[2] = test system: Human alphaherpesvirus 3; test: Antiviral activity against clinical isolate VZV; format: functional, organism-based
[3] = in vivo; details: mouse
[4] = test system: COLO-320-HSR; test: Antiproliferative activity against human COLO 320HSR cells assessed as cell growth inhibition; format: functional, cell-based
[5] = test system: DLD-1; test: Antiproliferative activity against human DLD-1 cells assessed as cell growth inhibition; format: functional, cell-based
[6] = test system: HT-29; test: Antiproliferative activity against human HT-29 cells assessed as cell growth inhibition; format: functional, cell-based

In the case of `Cn1c(=O)cc(N2CCC[C@@H](N)C2)n(Cc2ccccc2C#N)c1=O` [ALOGLIPTIN], the bioavailability [1] was 75%.
`CC#Cc1cn([C@@H]2O[C@H](CO)[C@@H](O)[C@@H]2O)c(=O)[nH]c1=O` [NETIVUDINE] showed a bioavailability [1] of 25% and a pIC50 [2] of 6.00.
`O=c1[nH]cc(F)c(=O)[nH]1` [FLUOROURACIL] gave a half-life [3] of 16 min.
Work on `O=c1[nH]c(=O)n([C@@H]2O[C@H](CO)[C@@H](O)[C@@H]2O)cc1F` yielded a pIC50 [4] of 7.64, a pIC50 [5] of 7.28 and a pIC50 [6] of 7.39.
